For data set [1], the system named is mouse model of atherosclerosis. In words: En face analysis of thoracic aorta lesions (Sudan IV staining). In kind it is in vivo. The settings on record: for amount of plaque present in the thoracic aorta (en face analysis): after 12 weeks of treatment, ApoE KO/AAV-CETP mice on Western diet (FIG. 5). How it is done:
(§1) ApoE KO mice, male and 6 to 7 weeks of age, were transfected in vivo with AAV-CETP. Two weeks after infection, CETP expression in plasma was verified using a commercially available ELISA kit, and the mice were placed on a Western (high-fat) diet.
(§2) The mice were sorted into several groups based on matching initial total cholesterol and verified CETP expression: 1 control group receiving a dose of dH2O. 2—a group receiving a high dose of L-carnitine (35.2 mg/mL dH2O). 3—a group receiving a low dose of L-carnitine (8.7mg/mL dH2O). 4—a group receiving a high dose of L-carnitine (35.2 mg/mL dH2O) and a dose of methimazaole (1.5 mg/mL dH2O). 5—a group receiving a dose of methimazaole (1.5 mg/mL dH2O).
(§3) Dosing began when the mice reached 10 weeks of age and continued for 12 weeks. Drugs were administered once daily by oral gavage. The animals' body weights were measured weekly.
The effect of treatment with L-carnitine and/or methimazole on atherosclerosis progression was determined by measuring the amount of lesions present in the thoracic aorta and the sinotubular junction of the aortic root. After 12 weeks of treatment, the mice were sacrificed, and their tissues were removed for analysis. The En-face thoracic aortas were isolated and prepared for analysis by trimming present fat and fixing the aortas in formalin for 48-72 hours. For morphometric en face analysis, the aortas were laid out, pinned on black matrix, and stained with the lipid binding dye Sudan IV to determine the percentage of the thoracic aorta with lesion present. A Nikon computerized image analysis system was used to image the vessels for surface involvement.

A short description of data set [2]: Plasma L-carnitine concentration by LC-MS. In kind it is in vivo, mouse. The settings on record: oral gavage once daily, ApoE KO/AAV-CETP mice (FIG. 3). How it is done: as §1, §2, §3
The concentrations of L-carnitine and TMAO in the plasma were measured using a liquid chromatography mass spectrometry method. A deuterium labeled L-carnitine stock standard was prepared using the weigh by difference technique. About 5 mg of d9-L-carnitine from Cambridge Isotope Laboratories were added to a 10 mL volumetric flask via a weighing funnel or weighing paper, and water:methanol=1:1 was used to dissolve the sample. A deuterium labeled TMAO stock standard was prepared by accurately weighing 25±2 mg of d9-trimethylamine N-oxide reference standard, transferring the sample into a 25 mL volumetric flask, adding about 15 mL of water:methanol=1:1, and vortexing until dissolved. The flask was then filled to volume with water:methanol=1:1
Stock standards of deuterium labeled L-carnitine and deuterium labeled TMAO were prepared using 5 mg/10 mL water/methanol of d9-L-carnitine and 25 mg/25 mL water/methanol of d9-TMAO. These stock standards were used to prepare an internal standard by adding 200 μL of d9-L-carnitine stock standard and 10 μL of d9-TMAO into a 50 mL volumetric flask, adding acetonitrile to volume, and mixing well.
Calibration standards were then prepared. […]

For data set [3], the system named is mouse model of atherosclerosis. In words: Plaque in the aortic root (aortic sinus sections, hematoxylin and eosin). In kind it is in vivo. Conditions: after 12 weeks of treatment, ApoE KO/AAV-CETP mice on Western diet (FIG. 7). How it is done: as §1, §2, §3
The nature of data set [4]: Plasma TMAO concentration by LC-MS. In kind it is in vivo, mouse. Conditions: high dose of L-carnitine (352 mg/kg), oral gavage once daily, ApoE KO/AAV-CETP mice (FIG. 4). How it is done:
as §1, §2, §3
The concentrations of L-carnitine and TMAO in the plasma were measured using a liquid chromatography mass spectrometry method. A deuterium labeled L-carnitine stock standard was prepared using the weigh by difference technique. About 5 mg of d9-L-carnitine from Cambridge Isotope Laboratories were added to a 10 mL volumetric flask via a weighing funnel or weighing paper, and water:methanol=1:1 was used to dissolve the sample. […]

Consider three molecules from US20180235919A1, “System and Method For Treating Atheroma Formation” (Lonza Inc., priority 2015, published 2018).

`C[N+](C)(C)[O-]` [TMAO, trimethylamine N-oxide]: in data set [1] (TMAO levels higher than 0.1 ppm versus TMAO levels lower than 0.1 ppm (FIG. 6)), the “percent lesion area of the thoracic aorta” value is “significant decrease”.

As for `Cn1cc[nH]c1=S` [methimazole], in data set [2] (methimazole (15 mg/kg)), the “concentration of L-carnitine in comparison to the control vehicle” value is reported as “significant decrease”. Also, in data set [3], the “amount of plaque in the aortic root” value was “small but significant reductions”. In addition, the “amount of plaque present in the thoracic aorta (en face analysis)” value in data set [1] was “no significant changes”.

Take `C[N+](C)(C)C[C@H](O)CC(=O)[O-]` [L-carnitine]: the “concentration of TMAO compared to the vehicle control” value in data set [4] is reported as “statistically significant increase”. Moreover, the “concentration of L-carnitine in the plasma compared to the control vehicle” value in data set [2] (high dose of L-carnitine (352 mg/kg)) and in data set [2] (low dose of L-carnitine (87 mg/kg)) was “significant increase” in each case. The “amount of plaque in the aortic root” value in data set [3] was “small but significant reductions”. The “amount of plaque present in the thoracic aorta (en face analysis)” value in data set [1] is “no significant changes”.
